# Patent publication US6147097A, “Imidazole derivatives as anti-HIV agents” (Shionogi & Co., Ltd., priority 1994, dated 2000)
# Like-named read-outs stand apart in the source and are kept apart here.
# How the values were obtained:
# [1] = molecular target: T1, purified recombinant HIV-1 reverse transcriptase (Human immunodeficiency virus type 1 group M subtype B, UniProt P04585); test: reverse transcriptase inhibition, poly(rA)/(dT) template primer, [3H]dTTP uptake; assay type: biochemical
# T1 construct: purified recombinant HIV-1 reverse transcriptase; made in house; host or cells: Escherichia coli
# Procedure: The reverse transcriptase activity of each of the compounds synthesized in Examples was assayed by the following procedures.
# Using the purified recombinant HIV-1 reverse transcriptase RT, E.C. 2.7.7.49) obtained by expression in Escherichia Coli, a 96-well plate assay system was established for assaying a large number of samples. The RT inhibitory activity was determined as follows. To 11 μl of a solution of the test inhibitor in water or MSO was added 100 μl of a reaction mixture (0.1 unit/100 μl RT, 50 mM Tris-HCl pH 8.3, 150 mM KCl, 10 mM MgCl2, 3 mM dithiothreitol, 0.1% Nonidet P-40, 10 μg/ml. poly(rA) and 10 μg/ml (dT)12-1.8 as template and primer, and 4 μM dTTP, 1 μCi/100 μl [^3 H]dTTP as substrate) and the mixture was incubated at 37° C. for 1 hour and, then, immediately cooled on ice. Using a cell harvester, the reaction mixture was transferred to a DEAE-filter mat (LKB-Pharmacia). Then, using the wash line of the cell harvester, the cells were washed twice with 5% Na2 HPO4 /H2 O and once with water and dried at 95° C. for 15 minutes. […] The inhibitory activity was expressed in percent inhibition relative to the uptake on water or DMSO control.
# [2] = system: HIV (HTLV-IIIB strain); test: microbe, parasite or virus in culture; assay type: cell-based
# Procedure: The anti-HIV activity of each of the compounds produced in Examples was assayed by the following procedures. […] On the other hand, the test compound was diluted with the above culture medium to predetermined concentrations and distributed in 50 μl aliquots into a 96-well microtiter plate. Then, d suspension of MT-4 cells was added in 100 μl aliquots (3.5×10^4 cells per well) and then the above HIV-containing supernatant diluted with the above culture medium was added, 50 μl (60 pfu (plaque forming units)) per well. (2) The plate was incubated in a CO2 incubator at 37° C. for 5 days. Then, 30 μl/well of 3-(4,5-dimethyl thiazol-2-yl)-2,5-diphenyltetrazolium bromide (MTT) (5 mg/ml PBS) was added and the incubation was further continued for 1 hour. The surviving cells reducing MTT yield precipitation of formazan. Therefore, 150 μl portions of the culture supernatant were removed from all wells and, instead, 150 μl of a solution (10% Triton X-100 and 0.4% (v/v) HCl-added isopropyl alcohol) was added. The plate was shaken on a plate mixer to dissolve the formazan.
# [3] = cytotoxicity in MT-4 cells (MTT, culture medium in place of HIV); assay type: cell-based; conditions: human
# Procedure: The anti-HIV activity of each of the compounds produced in Examples was assayed by the following procedures. (1) Human T cell line MOLT-4 clone 8 persistently infected by HIV (HTLV-IIIB strain) was cultured in an RPMI-1640 medium supplemented with 10% fetal calf serum, the culture supernatant was filtered, and the titer of virus was determined; the culture supernatant was stored at -80° C. On the other hand, the test compound was diluted with the above culture medium to predetermined concentrations and distributed in 50 μl aliquots into a 96-well microtiter plate. Then, d suspension of MT-4 cells was added in 100 μl aliquots (3.5×10^4 cells per well) and then the above HIV-containing supernatant diluted with the above culture medium was added, 50 μl (60 pfu (plaque forming units)) per well. (2) The plate was incubated in a CO2 incubator at 37° C. for 5 days. Then, 30 μl/well of 3-(4,5-dimethyl thiazol-2-yl)-2,5-diphenyltetrazolium bromide (MTT) (5 mg/ml PBS) was added and the incubation was further continued for 1 hour. The surviving cells reducing MTT yield precipitation of formazan. Therefore, 150 μl portions of the culture supernatant were removed from all wells and, instead, 150 μl of a solution (10% Triton X-100 and 0.4% (v/v) HCl-added isopropyl alcohol) was added. The plate was shaken on a plate mixer to dissolve the formazan. The OD of formazan was measured with a microreader at 560 nm arid 690 nm (reference wavelength) and the result was compared with that of control.
# The cytotoxicity of each of the compounds produced in Examples was assayed. In place of the HIV-containing supernatant (the virus suspension) in (1) in Test Example 1, 50 μl of the culture medium was added to each well, and the cytotoxicity was determined in the same manner as that for (2) in Test Example 1.
# [4] = Human immunodeficiency virus 1, IIIB, MT4, 120 h, MT-4 cells, 60 pfu HIV per well, 37° C., 5 days, MTT, Tables 1 and 2, read-out: EC50
# [5] = MT-4 cells, no virus, 37° C., 5 days, MTT, Table 3, read-out: CC50
Compound,"RT IC50 ([1]; pH 8.3, 37° C., 1 hour, Tables 5 and 6) [µg/mL]","EC50 ([2]; MT-4 cells, 60 pfu HIV per well, 37° C., 5 days, MTT, Tables 1 and 2) [ng/mL]",IC50 [1] [µM],CC50 at 120 h ([3]; mt-4 cells) [µg/mL],"EC50 [2, 4] [ng/mL]","CC50 at 120 h [3, 5] [µg/mL]","EC50 ([2]; Human immunodeficiency virus 1, IIIB, MT4, 120 h) [ng/mL]"
"2-aminoethyl-1-n-butyl-5-(3,5-dichlorophenylthio)-4-isopropyl-1H-imidazole [Compound I-68]",0.61,16,,,,,
"CC(C)c1nc(CO)n(Cc2ccc([N+](=O)[O-])cc2)c1Sc1cc(Cl)cc(Cl)c1 [Compound 103a, 5-(3,5-dichlorophenylthio)-2-hydroxymethyl-4-isopropyl-1-(p-nitrobenzyl)-1H-imidazole]",,,28.7,6.3 to 12.5,< 8,,
"CC(C)c1nc(CO)n(Cc2cccc([N+](=O)[O-])c2)c1Sc1cc(Cl)cc(Cl)c1 [Compound 103b, 5-(3,5-dichlorophenylthio)-2-hydroxymethyl-4-isopropyl-1-(m-nitrobenzyl)-1H-imidazole]",,,25,50,8,,
"CC(C)c1nc(CO)n(Cc2ccccc2[N+](=O)[O-])c1Sc1cc(Cl)cc(Cl)c1 [Compound 103c, 5-(3,5-dichlorophenylthio)-2-hydroxymethyl-4-isopropyl-1-(o-nitrobenzyl)-1H-imidazole]",,,57.9,6.3 to 12.5,60 to 130,,
"CC(C)c1nc(CO)n(Cc2ccc(N)cc2)c1Sc1cc(Cl)cc(Cl)c1 [Compound 104a, 1-(p-aminobenzyl)-5-(3,5-dichlorophenylthio)-2-hydroxymethyl-4-isopropyl-1H-imidazole]",,,3.08,12.5 to 25,< 8,,
"CC(C)c1nc(CO)n(Cc2cnc3ccccc3c2)c1Sc1cc(Cl)cc(Cl)c1 [Compound 109, 2-hydroxymethyl-5-(3,5-dichlorophenylthio)-4-isopropyl-1-(quinolin-3-ylmethyl)-1H-imidazole]",,,4.36,100,8,,
"CC(C)c1nc(CO)n(CCc2ccccn2)c1Sc1cc(Cl)cc(Cl)c1 [Compound 112a, 5-(3,5-dichlorophenylthio)-4-isopropyl-2-hydroxymethyl-1-(2-(2-pyridyl)ethyl)-1H-imidazole]",,,2.27,6.3,8,,
"CC(C)c1nc(CO)n(CCCc2ccccn2)c1Sc1cc(Cl)cc(Cl)c1 [Compound 112b, 5-(3,5-dichlorophenylthio)-4-isopropyl-2-hydroxymethyl-1-(3-(2-pyridyl)propyl)-1H-imidazole]",,,5.96,6.3 to 12.5,< 8,,
"CC(C)c1nc(CO)n(Cc2ccc(=O)[nH]c2)c1Sc1cc(Cl)cc(Cl)c1 [Compound 116a, 5-(3,5-dichlorophenylthio)-2-hydroxymethyl-1-(6-oxo-1,6-dihydro-pyridin-3-yl)methyl-4-isopropyl-1H-imidazole]",,,3.06,30.7,4,,
"CC(C)c1nc(CO)n(Cc2ccc[nH]c2=O)c1Sc1cc(Cl)cc(Cl)c1 [Compound 116b, 5-(3,5-dichlorophenyl-thio)-2-hydroxymethyl-1-(2(1H)-pyridon-3-ylmethyl)-4-isopropyl-1H-imidazole]",,,7.54,50,16,,
CCOC(=O)Cn1c(COCc2ccccc2)nc(C(C)C)c1Sc1cc(Cl)cc(Cl)c1 [Compound 118b],,,> 203,12.5 to 25,250,,
"CC(C)c1nc(COCc2ccccc2)n(CCO)c1Sc1cc(Cl)cc(Cl)c1 [Compound 118c, 2-[2-benzyloxymethyl-5-(3,5-dichlorophenylthio)-4-i-sopropyl-1H-imidazol-1-yl]ethanol]",,,> 222,6.3 to 12.5,1000,,
"Cc1ncccc1Cn1c(CO)nc(C(C)C)c1Sc1cc(Cl)cc(Cl)c1 [Compound 119a, 5-(3,5-dichlorophenylthio)-2-hydroxymethyl-4-isopropyl-1-(2-methylpyridin-3-ylmethyl)-1H-imidazole]",,,14.7,12.5,< 8,,
"CC(C)c1nc(CO)n(CCO)c1Sc1cc(Cl)cc(Cl)c1 [Compound 119b, 2-(5-(3,5-dichlorophenyl-thio)-2-hydroxymethyl-4-isopropyl-1H-imidazol-1-yl)ethanol]",,,1.72,12.5 to 25,< 8,,
CCn1c(CCOCc2ccccc2)nc(C(C)C)c1Sc1cc(Cl)cc(Cl)c1 [Compound 122a],,,42.3,6.3,130,,
"CC(C)c1nc(CCOCc2ccccc2)n(Cc2ccncc2)c1Sc1cc(Cl)cc(Cl)c1 [Compound 122b, 4-[2-(2-benzyloxyethyl)-5-(3,5-dichlorophenylthio)-4-isopropyl-1H-imidazol-1-ylmethy]pyridine]",,,71.4,6.3,500 to 1000,,
"CCn1c(CCO)nc(C(C)C)c1Sc1cc(Cl)cc(Cl)c1 [Compound 123a, 2-[5-(3,5-dichlorophenylthio)-1-ethyl-4-isopropyl-1H-imidazol-2-yl]ethanol]",,,0.417,6.3 to 12.5,0.6,,
"CC(C)c1nc(CCO)n(Cc2ccncc2)c1Sc1cc(Cl)cc(Cl)c1 [Compound 123b, 2-[5-(3,5-dichlorophenylthio)-4-isopropyl-1-(pyridin-4-ylmethyl)-1H-imidazol-2-yl]ethanol]",,,0.355,12.5 to 25,3,,
"CC(C)c1nc(CO)[nH]c1[S+]([O-])c1cc(Cl)cc(Cl)c1 (centres unmarked) [Compound I-113, [5-(3,5-dichlorophenylsulfinyl)-4-isopropyl-1H-imidazol-2-yl]methanol]",,,,,100000,100,
"CC(C)c1nc(CO)[nH]c1S(=O)(=O)c1cc(Cl)cc(Cl)c1 [Compound I-114, [5-(3,5-dichlorophenylsulfonyl)-4-isopropyl-1H-imidazol-2-yl]methanol]",,,,,10000,10 to 100,
"CC(C)c1nc(COC(N)=O)n(Cc2ccncc2)c1Sc1cc(Cl)cc(Cl)c1 [I-93', 2-carbamoyloxymethyl-5-(3,5-dichlorophenylthio)-4-isopropyl-1-(pyridin-4-yl)methyl-1H-imidazole]",,,,,,10 to 100,0.06 to 0.13
